{
  "source": "patent US5677291A",
  "about": "“Method of lowering serum cholesterol levels with 2,6-di-alkyl-4-silyl-phenols” (Hoechst Marion Roussel, Inc., priority 1996, dated 1997)",
  "format_in_all_cases": "in vivo, New Zealand White rabbit",
  "key": {"[1]": {"test_system": "1% Cholesterol-Fed New Zealand White Rabbits", "experiment": "Reduction of cholesterol levels of 1% cholesterol-fed rabbits by concurrent administration of 0.5% Compound A (Example 18)", "settings": "1% cholesterol/0.5% drug diet; for Cholesterol: plasma or serum, n = 6", "description": "New Zealand Whim (NZW) rabbits (female, aged 3-4 months, weighing less than 3 kg) six in each group, were fed a control diet of 1% cholesterol (100 g rabbit chow daily containing 1 g cholesterol) or a diet of 1% cholesterol/0.5% drag (100 g rabbit chow daily containing 1 g cholesterol and 0.5 g Compound A). After 56 days, the rabbits were sacrificed by intravenous injection of pentobarbital. Plasma or serum was collected and cholesterol levels were determined using the enzymatic method of Mao, et at., Clin. Chem. (1983) 29:1890-1897."}, "[2]": {"test_system": "0.2% Cholesterol-Fed New Zealand White Rabbits", "experiment": "Reduction of cholesterol levels of 0.2% cholesterol-fed rabbits by concurrent administration of 0.4% Compound A (Example 19)", "settings": "for Cholesterol: plasma or serum, n = 6", "description": "NZW rabbits (female, aged 3-4 months, weighing less than 3 Kg), six in each group, were fed a control diet of 0.2% cholesterol (100 g rabbit chow daily containing 0.2 g cholesterol) or a diet of 0.2% cholesterol/0.4% drag (100 g rabbit chow daily containing 0.2 g cholesterol and 0.4 g Compound A). After 56 days, the rabbits were sacrificed by intravenous injection of pentobarbital. Plasma or serum was collected and cholesterol levels were determined using the enzymatic method of Mao, et at., Clin. Chem. (1983) 29: 1890-1897."}, "[3]": {"test_system": "0.2% Cholesterol-Fed New Zealand White Rabbits", "experiment": "Serum total, LDL and HDL cholesterol and triglycerides in 0.2% cholesterol-fed rabbits, concurrent 0.4% drug (Example 20)", "set-up": "triglycerides: reference not given here", "settings": "0.2% cholesterol/0.4% drug diet; for cholesterol (total) % Control / HDL cholesterol % Control / LDL cholesterol % Control: % of control; for HDL cholesterol % Control / LDL cholesterol % Control: serum, gel filtration HPLC", "source_text": "(§1) NZW rabbits (female, aged 3-4 months, weighing less than 3 Kg), six in each group, were fed a control diet of 0.2% cholesterol (100 g rabbit chow daily containing 0.2 g cholesterol) or a diet of 0.2% cholesterol/0.4% drug (100 g rabbit chow daily containing 0.2 g cholesterol and 0.4 g of drag). For Compound A, the rabbits were sacrificed by intravenous injection of pentobarbital after 56 days. For Compound G, K, E and H, the rabbits were sacrificed by intravenous injection of pentobarbital after 7 days. Plasma or serum was collected and cholesterol levels were determined using the enzymatic method of Mao, et at., Clin. Chem. (1983) 29:1890-1897. Liver weight and body weights were determined. Serum HDL and LDL cholesterol levels were determined using gel filtration HPLC modified from Kieft, K. A., et at., J. Lipid Res., 32:859-861 (1991), using Roche enzymatic cholesterol reagents. Triglyceride levels were determined by Cobas Automated Analyzer using Roche enzymatic reagents."}, "[4]": {"test_system": "0.2% Cholesterol-Fed New Zealand White Rabbits", "experiment": "Liver weight / body weight ratio in 0.2% cholesterol-fed rabbits, concurrent 0.4% drug (Example 20)", "settings": "0.2% cholesterol/0.4% drug diet", "source_text": "as §1"}, "[5]": {"test_system": "Normolipidemic New Zealand Rabbits", "experiment": "Reduction in cholesterol levels of normolipidemic rabbits by concurrent administration of 0.5% Compound A (Example 21)", "settings": "normal diet with 0.5% drug; for Cholesterol: serum, n = 4", "description": "New Zealand White rabbits (female, aged 3-4 months, weighing less than 3 kg), four in each group, were fed a normal diet (100 g rabbit chow daily) or a diet of 0.5% drug (100 g rabbit chow daily containing 0.5 g Compound A). Serum was collected and cholesterol levels were determined according to the method of Mao, et at., Clin. Chem. (1983) 29:1890-1897."}},
  "data": [
    {"smiles": "CC(C)(C)c1cc(SC[Si](C)(C)c2ccccc2)cc(C(C)(C)C)c1O", "note": "[Compound A, 2,6-Di-t-butyl-4[(dimethylphenylsilyl)methylthio]phenol]", "values": [
      {"measurement": "Cholesterol", "setting": "[1]; day 0", "result": "59 ± 8", "unit": "mg/dL"},
      {"measurement": "Cholesterol", "setting": "[1]; day 14", "result": "684 ± 99", "unit": "mg/dL"},
      {"measurement": "Cholesterol", "setting": "[1]; day 28", "result": "954 ± 126", "unit": "mg/dL"},
      {"measurement": "Cholesterol", "setting": "[1]; day 42", "result": "1118 ± 164", "unit": "mg/dL"},
      {"measurement": "Cholesterol", "setting": "[1]; day 56", "result": "1035 ± 152", "unit": "mg/dL"},
      {"measurement": "reduction of serum cholesterol", "setting": "[1]; day 56, vs control", "result": 57, "unit": "%"},
      {"measurement": "reduction of cholesterol", "setting": "[2]; 56 days, 0.2% cholesterol/0.4% drug diet", "result": 64, "unit": "%"},
      {"measurement": "cholesterol lowering (in words)", "setting": "[2]; administration for 56 days, 0.2% cholesterol-fed rabbits", "result": "significant cholesterol lowering"},
      {"measurement": "Cholesterol", "setting": "[2]; day 0, 0.2% cholesterol/0.4% drug diet", "result": "66 ± 8", "unit": "mg/dL"},
      {"measurement": "Cholesterol", "setting": "[2]; day 7, 0.2% cholesterol/0.4% drug diet", "result": "154 ± 17", "unit": "mg/dL"},
      {"measurement": "Cholesterol", "setting": "[2]; day 14, 0.2% cholesterol/0.4% drug diet", "result": "223 ± 32", "unit": "mg/dL"},
      {"measurement": "Cholesterol", "setting": "[2]; day 28, 0.2% cholesterol/0.4% drug diet", "result": "291 ± 59", "unit": "mg/dL"},
      {"measurement": "Cholesterol", "setting": "[2]; day 42, 0.2% cholesterol/0.4% drug diet", "result": "357 ± 89", "unit": "mg/dL"},
      {"measurement": "Cholesterol", "setting": "[2]; day 56, 0.2% cholesterol/0.4% drug diet", "result": "337 ± 100", "unit": "mg/dL"},
      {"measurement": "triglycerides", "setting": "[3]; 56 days", "result": 366, "unit": "%"},
      {"measurement": "cholesterol (total) % Control", "setting": "[3]; 56 days", "result": 52, "unit": "%"},
      {"measurement": "HDL cholesterol % Control", "setting": "[3]; 56 days", "result": 75, "unit": "%"},
      {"measurement": "LDL cholesterol % Control", "setting": "[3]; 56 days", "result": 42, "unit": "%"},
      {"measurement": "liver wt/body wt ratio", "setting": "[4]; 56 days", "result": 120, "unit": "%"},
      {"measurement": "Cholesterol", "setting": "[5]; day 0", "result": "43.5 ± 4", "unit": "mg/dL"},
      {"measurement": "Cholesterol", "setting": "[5]; day 8", "result": "69.7 ± 6", "unit": "mg/dL"},
      {"measurement": "Cholesterol", "setting": "[5]; day 14", "result": "54.8 ± 8", "unit": "mg/dL"},
      {"measurement": "level of cholesterol significantly reduced by", "setting": "[5]; day 23, compared to control rabbits", "result": "about 29%"},
      {"measurement": "Cholesterol", "setting": "[5]; day 23", "result": "58.3 ± 6", "unit": "mg/dL"}
    ]},
    {"smiles": "CC(C)(C)c1cc(OC[Si](C)(C)c2ccccc2)cc(C(C)(C)C)c1O", "note": "[Compound G]", "values": [
      {"measurement": "triglycerides", "setting": "[3]; 7 days", "result": 104, "unit": "%"},
      {"measurement": "cholesterol (total) % Control", "setting": "[3]; 7 days", "result": 72, "unit": "%"},
      {"measurement": "HDL cholesterol % Control", "setting": "[3]; 7 days", "result": 81, "unit": "%"},
      {"measurement": "LDL cholesterol % Control", "setting": "[3]; 7 days", "result": 69, "unit": "%"},
      {"measurement": "liver wt/body wt ratio", "setting": "[4]; 7 days", "result": 104, "unit": "%"}
    ]},
    {"smiles": "COc1ccc([Si](C)(C)COc2cc(C(C)(C)C)c(O)c(C(C)(C)C)c2)cc1", "note": "[Compound H, 2,6-Di-t-butyl-4[(dimethyl-4-methoxyphenylsilyl)methyloxy]phenol]", "values": [
      {"measurement": "triglycerides", "setting": "[3]; 7 days", "result": 73, "unit": "%"},
      {"measurement": "cholesterol (total) % Control", "setting": "[3]; 7 days", "result": 54, "unit": "%"},
      {"measurement": "HDL cholesterol % Control", "setting": "[3]; 7 days", "result": 123, "unit": "%"},
      {"measurement": "LDL cholesterol % Control", "setting": "[3]; 7 days", "result": 66, "unit": "%"},
      {"measurement": "liver wt/body wt ratio", "setting": "[4]; 7 days", "result": 110, "unit": "%"}
    ]},
    {"smiles": "COc1ccccc1[Si](C)(C)COc1cc(C(C)(C)C)c(O)c(C(C)(C)C)c1", "note": "[Compound K, 2,6-Di-t-butyl-4-[(dimethy 1-2-methoxyphenylsilyl)methyloxy]phenol]", "values": [
      {"measurement": "triglycerides", "setting": "[3]; 7 days", "result": 131, "unit": "%"},
      {"measurement": "cholesterol (total) % Control", "setting": "[3]; 7 days", "result": 77, "unit": "%"},
      {"measurement": "HDL cholesterol % Control", "setting": "[3]; 7 days", "result": 217, "unit": "%"},
      {"measurement": "LDL cholesterol % Control", "setting": "[3]; 7 days", "result": 61, "unit": "%"},
      {"measurement": "liver wt/body wt ratio", "setting": "[4]; 7 days", "result": 90, "unit": "%"}
    ]},
    {"smiles": "CC(C)(C)c1cc(OC[Si](C)(C)c2ccc(Cl)cc2)cc(C(C)(C)C)c1O", "note": "[E, 2,6 Di-t-butyl-4[(4-chlorophenyldimethylsilyl)methyloxy]phenol]", "values": [
      {"measurement": "triglycerides", "setting": "[3]; 7 days", "result": 82, "unit": "%"},
      {"measurement": "cholesterol (total) % Control", "setting": "[3]; 7 days", "result": 87, "unit": "%"},
      {"measurement": "HDL cholesterol % Control", "setting": "[3]; 7 days", "result": 109, "unit": "%"},
      {"measurement": "LDL cholesterol % Control", "setting": "[3]; 7 days", "result": 89, "unit": "%"},
      {"measurement": "liver wt/body wt ratio", "setting": "[4]; 7 days", "result": 93, "unit": "%"}
    ]}
  ]
}
